In patent publication US9745328B2, “Flap modulators” (JANSSEN PHARMACEUTICA NV, priority 2013, dated 2017):

Molecular target: human FLAP (Homo sapiens (Human), UniProt P20292)
Assay: FLAP binding assay (HTRF format)
Details: Table 6 (additional runs), human FLAP wild type
Protocol: The ability of the compounds of the present invention to treat a FLAP-mediated disease and/or disorder, or associated symptoms or complications thereof, was determined using the following procedures. Binding assay data represent the average value obtained from two different assay plates, with samples run in duplicate on each plate. Human whole blood assay data represent a single replicate on an assay plate using whole blood from at least one healthy donor.
Data are expressed as a HTRF ratio.

Sequence of human FLAP (P20292 whole entry): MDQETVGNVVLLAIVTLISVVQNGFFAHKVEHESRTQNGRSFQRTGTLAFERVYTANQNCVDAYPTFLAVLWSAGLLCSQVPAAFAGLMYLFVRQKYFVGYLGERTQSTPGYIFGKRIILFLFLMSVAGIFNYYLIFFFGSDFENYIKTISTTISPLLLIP

Compared with `Nc1cnc(-c2ccc(-c3ccccc3S(=O)(=O)NC3CC3)cc2F)cn1` [Example 89, 4′-(5-Aminopyrazin-2-yl)-N-cyclopropyl-3′-fluoroblphenyl-2-sulfonamide], `Nc1cnc(-c2ccc(-c3ccccc3S(=O)(=O)N[C@H]3CC[C@H](O)CC3)cc2F)cn1` [Example 110, trans 4′-(5-Aminopyrazin-2-yl)-3′-fluoro-N-(4-hydroxycyclohexyl)biphenyl-2-sulfonamide] is 1.9-fold lower in Ki: 4.9 nM for the first, 2.6 nM for the second. The second binds more tightly here.

Compared with `Nc1cnc(-c2ccc(-c3ccccc3S(=O)(=O)NCC3CC3)cc2F)cn1` [Example 90, 4′-(5-Aminopyrazin-2-yl)-N-(cyclopropylmethyl)-3′-fluorobiphenyl-2-sulfonamide], `C[C@@H](O)CNS(=O)(=O)c1ccccc1-c1ccc(-c2cnc(N)cn2)c(F)c1` [Example 97, (R)-4′-(5-aminopyrazin-2-yl)-3′-fluoro-N-(2-hydroxypropyl)-[1,1′-biphenyl]-2-sulfonamide] is 7.3-fold higher in Ki: 0.9 nM for the first, 6.6 nM for the second. The first binds more tightly here.

Going from `CS(=O)(=O)NS(=O)(=O)c1ccccc1-c1ccc(-c2cnc(N)cn2)c(F)c1` [Example 96, 4′-(5-Aminopyrazin-2-yl)-3′-fluoro-N-(methylsulfonyl)biphenyl-2-sulfonamide] to `C[C@H](O)CNS(=O)(=O)c1ccccc1-c1ccc(-c2cnc(N)cn2)c(F)c1` [Example 98, (S)-4′-(5-aminopyrazin-2-yl)-3′-fluoro-N-(2-hydroxypropyl)-[1,1′-biphenyl]-2-sulfonamide], the Ki falls from 354 nM to 6.1 nM (58-fold).

Compared with `Nc1cnc(-c2ccc(-c3ccccc3S(=O)(=O)NCC3(O)CCCCC3)cc2F)cn1` [Example 99, 4′-(5-Aminopyrazin-2-yl)-3′-fluoro-N-[(1-hydroxycyclohexyl)methyl]biphenyl-2-sulfonamide], `N#CCCNS(=O)(=O)c1ccccc1-c1ccc(-c2cnc(N)cn2)c(F)c1` [Example 169, 4′-(5-Aminopyrazin-2-yl)-N-(2-cyanoethyl)-3′-fluorobiphenyl-2-sulfanamide] is 1.8-fold higher in Ki: 1.6 nM for the first, 2.9 nM for the second. The first binds more tightly here.

Compared with `CC(C)(CO)NS(=O)(=O)c1ccccc1-c1ccc(-c2cnc(N)cn2)c(F)c1` [Example 100, 4′-(5-Aminopyrazin-2-yl)-3′-fluoro-N-(2-hydroxy-1,1-dimethylethyl)biphenyl-2-sulfonamide], `CC(C)(CCO)NS(=O)(=O)c1ccccc1-c1ccc(-c2cnc(N)cn2)c(F)c1` [Example 102, 4′-(5-Aminopyrazin-2-yl)-3′-fluoro-N-(3-hydroxy-1,1-dimethylpropyl)biphenyl-2-sulfonamide] is 2-fold lower in Ki: 0.8 nM for the first, 0.4 nM for the second. The second binds more tightly here.

First: CC(C)(O)CNS(=O)(=O)c1ccccc1-c1ccc(-c2cnc(N)cn2)c(F)c1 [Example 101, 4′-(5-Aminopyrazin-2-yl)-3′-fluoro-N-(2-hydroxy-2-methylpropyl)biphenyl-2-sulfonamide]
Second: CC(C)(CO)CNS(=O)(=O)c1ccccc1-c1ccc(-c2cnc(N)cn2)c(F)c1 [Example 103, 4′-(5-Aminopyrazin-2-yl)-3′-fluoro-N-(3-hydroxy-2,2-dimethylpropyl)biphenyl-2-sulfonamide]
The Ki of the first is 6-fold higher: 1.8 nM for the first, 0.3 nM for the second. The second binds more tightly here.

Going from `Nc1cnc(-c2ccc(-c3ccccc3S(=O)(=O)N[C@H]3CCCNC3=O)cc2F)cn1` [Example 108, (S)-4′-(5-aminopyrazin-2-yl)-3′-fluoro-N-(2-oxopiperidin-3-yl)-[1,1′-biphenyl]-2-sulfonamide] to `Nc1cnc(-c2ccc(-c3ccccc3S(=O)(=O)N[C@H]3CC[C@@H](N)CC3)cc2F)cn1` [Example 134, N-(4-Aminocyclohexyl)-4′-(5-aminopyrazin-2-yl)-3′-fluorobiphenyl-2-sulfonamide], the Ki falls from 9.5 nM to 1.3 nM (7.3-fold). The second binds more tightly here.

First: CC(C)[C@H](CO)NS(=O)(=O)c1ccccc1-c1ccc(-c2cnc(N)cn2)c(F)c1 [Example 109]
Second: CC(C)[C@@H](CO)NS(=O)(=O)c1ccccc1-c1ccc(-c2cnc(N)cn2)c(F)c1 [Example 148, (S)-4′-(5-aminopyrazin-2-yl)-3′-fluoro-N-(1-hydroxy-3-methylbutan-2-yl)-[1,1′-biphenyl]-2-sulfonamide]
The Ki of the first is 1.7-fold lower: 1.5 nM for the first, 2.5 nM for the second.

Compared with `Nc1cnc(-c2ccc(-c3ccccc3S(=O)(=O)N[C@H](CO)Cc3ccccc3)cc2F)cn1` [Example 116, (3),4-(5-aminopyrazin-2-yl)-3′-fluoro-N-(1-hydroxy-3-phenylpropan-2-yl)-[1,1′-biphenyl]-2-sulfonamide], `CC[C@@H](CO)NS(=O)(=O)c1ccccc1-c1ccc(-c2cnc(N)cn2)c(F)c1` [Example 153, (S)-4′-(5-aminopyrazin-2-yl)-3′-fluoro-N-(1-hydroxybutan-2-yl)-[1,1′-biphenyl]-2-suifonamide] is 3.6-fold higher in Ki: 0.7 nM for the first, 2.5 nM for the second. The first binds more tightly here.

`C[C@@H]([C@@H](O)c1ccccc1)N(C)S(=O)(=O)c1ccccc1-c1ccc(-c2cnc(N)cn2)c(F)c1` [Example 118, 4′-(5-aminopyrazin-2-yl)-3′-fluoro-N-((1S,2S)-1-hydroxy-1-phenylpropan-2-yl)-N-methyl-[1,1′-biphenyl)-2-sulfonamide] and `Nc1cnc(-c2ccc(-c3ccccc3S(=O)(=O)N3c4ccccc4C[C@H]3CO)cc2F)cn1` [Example 135, (S)-(1-{[4′-(5-Aminopyrazin-2-yl)-3′-fluorobiphenyl-2-yl]sulfonyl}-2,3-dihydro-1H-indol-2-yl)methanol] are the same in Ki: 0.4 nM for the first, 0.4 nM for the second.

Compared with `Nc1cnc(-c2ccc(-c3ccccc3S(=O)(=O)N3CC(O)C3)cc2F)cn1` [Example 119, 1-{[4′-(5-Aminopyrazin-2-yl)-3′-fluorobiphenyl-2-yl]sulfonyl}azetidin-3-ol], `Nc1cnc(-c2ccc(-c3ccccc3S(=O)(=O)N3C[C@@H]4C(N)[C@@H]4C3)cc2F)cn1` (stereo partly drawn) [Example 143, (1R,5S)-3-((4′-(5-aminopyrazin-2-yl)-3′-fluoro-[1,1′-biphenyl]-2-yl)sulfonyl)-3-azabicyclo[3.1.0]hexan-6-amine] is 3.1-fold higher in Ki: 2.7 nM for the first, 8.5 nM for the second.

Compared with `CN[C@@H]1CCN(S(=O)(=O)c2ccccc2-c2ccc(-c3cnc(N)cn3)c(F)c2)C1` [Example 126, (R)-5-(3-Fluoro-2′-{[3-(methylamino)pyrrolidin-1-yl]sulfonyl}biphenyl-4-yl)pyrazin-2-amine], `Nc1cnc(-c2ccc(-c3ccccc3S(=O)(=O)N3CCC(c4c[nH]cn4)CC3)cc2F)cn1` [Example 164, 5-(3-Fluoro-2′-{[4-(1H-imidazol-4′-yl)piperidin-1-yl]sulfonyl}biphenyl-4-yl)pyrazin-2-amine] is 180-fold lower in Ki: 141 nM for the first, 0.8 nM for the second.

First: Nc1cnc(-c2ccc(-c3ccccc3S(=O)(=O)N3CCc4[nH]ncc4C3)cc2F)cn1 [Example 128, 5-[3-Fluoro-2′-(1,4,6,7-tetrahydro-5H-pyrazolo[4,3-c]pyridin-5-ylsulfonyl)biphenyl-4-yl]pyrazin-2-amine]
Second: N#CCCN1CCN(S(=O)(=O)c2ccccc2-c2ccc(-c3cnc(N)cn3)c(F)c2)CC1 [Example 174, 3-(4-{[4′-(5-Aminopyrazin-2-yl)-3′-fluoroblphenyl-2-yl]sulfonyl}piperazin-1-yl)propanenitrile]
The Ki of the first is 3-fold lower: 0.8 nM for the first, 2.4 nM for the second.

First: Nc1cnc(-c2ccc(-c3ccccc3S(=O)(=O)NCCCCCO)cc2F)cn1 [Example 132, 4′-(5-Aminopyrazin-2-yl)-3′-fluoro-N-(5-hydroxypentyl)biphenyl-2-sulfonamide]
Second: CC(CO)(CO)NS(=O)(=O)c1ccccc1-c1ccc(-c2cnc(N)cn2)c(F)c1 [Example 147, 4′-(5-Aminopyrazin-2-yl)-3′-fluora-N-[2-hydroxy-1-(hydroxymethyl)-1-methylethyl]piphenyl-2-sulfonamide]
The Ki of the first is 4-fold higher: 2.4 nM for the first, 0.6 nM for the second. The second binds more tightly here.

First: Nc1cnc(-c2ccc(-c3ccccc3S(=O)(=O)N(CCO)C3CCCCC3)cc2F)cn1 [Example 136, 4′-(5-Aminopyrazin-2-yl)-N-cyclohexyl-3′-fluoro-N-(2-hydroxyethyl)biphenyl-2-sulfonamide]
Second: N#CCCN(C1CC1)S(=O)(=O)c1ccccc1-c1ccc(-c2cnc(N)cn2)c(F)c1 [Example 172, 4′-(5-Aminopyrazin-2-yl)-N-(2-cyanoethyl)-N-cyclopropyl-3′-fluorobiphenyl-2-suifonamide]
The Ki of the first is 7.2-fold lower: 0.5 nM for the first, 3.6 nM for the second. The first binds more tightly here.

First: Nc1cnc(-c2ccc(-c3ccccc3S(=O)(=O)N(C3CCOCC3)C3CC3)cc2F)cn1 [Example 140, 4′-(5-Aminopyrazin-2-yl)-N-cyclopropyl-3′-fluoro-N-(tetrahydro-2H-pyran-4-yl)biphenyl-2-sulfonamide]
Second: CC1(NS(=O)(=O)c2ccccc2-c2ccc(-c3cnc(N)cn3)c(F)c2)COC1 [Example 173, 4′-(5-Aminopyrazin-2-yl)-3′-fluoro-N-(3-methyloxetan-3-yl)biphenyl-2-sulfonamide]
The Ki of the first is 1.7-fold higher: 1.4 nM for the first, 0.8 nM for the second. The second binds more tightly here.

`CC(C)(C)[C@H](CO)NS(=O)(=O)c1ccccc1-c1ccc(-c2cnc(N)cn2)c(F)c1` [Example 150, (R)-4′-(5-aminopyrazin-2-yl)-3′-fluoro-N-(1-hydroxy-3,3-dimethylbutan-2-yl)-[1,1′-biphenyl]-2-sulfonamide] and `COC[C@H](C)NS(=O)(=O)c1ccccc1-c1ccc(-c2cnc(N)cn2)c(F)c1` [Example 175, (S)-4′-(5-aminopyrazin-2-yl)-3′-fluoro-N-(1-methoxypropan-2-yl)-[1,1′-biphenyl]-2-sulfonamide] are within 1.5-fold of each other in Ki: 1.5 nM for the first, 1.4 nM for the second.

First: CC(C)(C)OC(=O)NCCNS(=O)(=O)c1ccccc1-c1ccc(-c2cnc(N)cn2)c(F)c1 [Example 151]
Second: Nc1cnc(-c2ccc(-c3ccccc3S(=O)(=O)N[C@@H]3c4ccccc4C[C@@H]3O)cc2F)cn1 [Example 161, 4′-(5-aminopyrazin-2-yl)-3′-fluoro-N-((1R,2S)-2-hydroxy-2,3-dihydro-1H-inden-1-yl)-[1,1′-biphenyl]-2-sulfonamide]
The Ki of the first is 3.2-fold higher: 1.3 nM for the first, 0.4 nM for the second. The second binds more tightly here.

Work on `Nc1cnc(-c2ccc(-c3ccccc3S(=O)(=O)Nc3ccc(C(F)(F)F)nc3)cc2F)cn1` [Example 163, 4′-(5-Aminopyrazin-2-yl)-3′-fluoro-N-[6-(trifluoromethyl)pyridin-3-yl]biphenyl-2-sulfonamide] yielded a Ki of 0.5 nM.

Same assay, conditions: human FLAP wild type, a calculated value of 0.000 indicates Ki less than 1 nM

`CC(C)(CCO)NS(=O)(=O)c1ccccc1-c1ccc(-c2cnc(N)cn2)c(F)c1` [Example 102, 4′-(5-Aminopyrazin-2-yl)-3′-fluoro-N-(3-hydroxy-1,1-dimethylpropyl)biphenyl-2-sulfonamide] and `CC(C)(CO)CNS(=O)(=O)c1ccccc1-c1ccc(-c2cnc(N)cn2)c(F)c1` [Example 103, 4′-(5-Aminopyrazin-2-yl)-3′-fluoro-N-(3-hydroxy-2,2-dimethylpropyl)biphenyl-2-sulfonamide] cannot be ordered by Ki: less than 1 nM for the first, less than 1 nM for the second.

`C[C@@H]([C@@H](O)c1ccccc1)N(C)S(=O)(=O)c1ccccc1-c1ccc(-c2cnc(N)cn2)c(F)c1` [Example 118, 4′-(5-aminopyrazin-2-yl)-3′-fluoro-N-((1S,2S)-1-hydroxy-1-phenylpropan-2-yl)-N-methyl-[1,1′-biphenyl)-2-sulfonamide] and `Nc1cnc(-c2ccc(-c3ccccc3S(=O)(=O)N3c4ccccc4C[C@H]3CO)cc2F)cn1` [Example 135, (S)-(1-{[4′-(5-Aminopyrazin-2-yl)-3′-fluorobiphenyl-2-yl]sulfonyl}-2,3-dihydro-1H-indol-2-yl)methanol] cannot be ordered by Ki: less than 1 nM for the first, less than 1 nM for the second.

With `Nc1cnc(-c2ccc(-c3ccccc3S(=O)(=O)N[C@@H]3c4ccccc4C[C@@H]3O)cc2F)cn1` [Example 161, 4′-(5-aminopyrazin-2-yl)-3′-fluoro-N-((1R,2S)-2-hydroxy-2,3-dihydro-1H-inden-1-yl)-[1,1′-biphenyl]-2-sulfonamide] the Ki was less than 1 nM.
